According to ChEMBL document CHEMBL1201862, “PubChem BioAssay data set” (2004):
Active and inactive are the calls of the source.

What was measured:
[1] = molecular target: T1, Short transient receptor potential channel 4 (Mus musculus, UniProt Q9QUQ5); test: calcium entry via TRPC4 opening agents – cell-based, HEK293 TRPC4/mu-opioid, Fluo-4 calcium, dose response (AID 434937); type: functional
T1 sequence (Q9QUQ5 whole entry): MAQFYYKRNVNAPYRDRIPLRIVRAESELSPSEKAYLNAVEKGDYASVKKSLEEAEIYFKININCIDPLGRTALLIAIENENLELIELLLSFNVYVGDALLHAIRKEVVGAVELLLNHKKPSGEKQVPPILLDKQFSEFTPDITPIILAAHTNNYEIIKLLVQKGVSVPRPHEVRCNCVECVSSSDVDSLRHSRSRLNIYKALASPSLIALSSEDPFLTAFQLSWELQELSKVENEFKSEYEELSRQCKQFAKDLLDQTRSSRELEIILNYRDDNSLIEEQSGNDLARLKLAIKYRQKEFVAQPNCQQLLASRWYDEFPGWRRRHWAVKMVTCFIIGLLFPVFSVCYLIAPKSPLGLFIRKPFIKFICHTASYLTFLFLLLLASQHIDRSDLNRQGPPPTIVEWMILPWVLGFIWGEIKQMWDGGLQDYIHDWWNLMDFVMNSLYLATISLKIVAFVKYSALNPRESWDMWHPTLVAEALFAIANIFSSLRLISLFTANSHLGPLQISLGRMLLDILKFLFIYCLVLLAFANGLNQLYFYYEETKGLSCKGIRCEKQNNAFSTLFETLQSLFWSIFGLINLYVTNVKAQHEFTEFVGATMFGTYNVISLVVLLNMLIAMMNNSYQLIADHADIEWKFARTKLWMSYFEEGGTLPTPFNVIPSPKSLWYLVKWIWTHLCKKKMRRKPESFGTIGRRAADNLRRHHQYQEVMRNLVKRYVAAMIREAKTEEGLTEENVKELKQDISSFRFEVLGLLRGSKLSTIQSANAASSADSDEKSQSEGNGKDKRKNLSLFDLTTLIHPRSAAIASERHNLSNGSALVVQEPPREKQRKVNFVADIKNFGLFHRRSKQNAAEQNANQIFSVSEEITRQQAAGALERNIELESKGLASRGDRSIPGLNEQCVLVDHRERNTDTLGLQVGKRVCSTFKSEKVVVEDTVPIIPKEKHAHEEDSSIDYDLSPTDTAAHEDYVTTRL

[2] = molecular target: T2, Carboxy-terminal domain RNA polymerase II polypeptide A small phosphatase 1 (Homo sapiens, UniProt Q9GZU7); test: CTDSP1 inhibitors, concentration-response, biochemical, absorbance readout, ultra-high-throughput screen actives (AID 540297); type: functional
T2 sequence (Q9GZU7 whole entry): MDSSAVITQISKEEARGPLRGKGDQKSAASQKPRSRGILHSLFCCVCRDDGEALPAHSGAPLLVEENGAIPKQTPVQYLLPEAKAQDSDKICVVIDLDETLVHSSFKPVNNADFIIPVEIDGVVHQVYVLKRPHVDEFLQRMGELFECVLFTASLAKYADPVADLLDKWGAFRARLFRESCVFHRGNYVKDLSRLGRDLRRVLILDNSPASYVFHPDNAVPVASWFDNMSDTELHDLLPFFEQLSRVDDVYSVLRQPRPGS

[3] = HEK-293T viability loss after treatment – luminescence, T-cell screen hits, cytotoxicity control for TCR NF-kB inhibitor project, dose response (AID 489026); type: functional, cell-based;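 note: cells exposed to compound about 14 hours before the viability readout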
BJ [4] = test: cells; type: functional, cell-based; conditions: Homo sapiens
HEK293 [5] = test: inhibition of NOD1-driven NF-kB reporter – cell-based, luminescence, uHTS, primary screen (AID 1578); type: functional; conditions: Homo sapiens
HEK293 [6] = test: NOD2 signaling inhibitors in MDP-stimulated cells, cell-based, uHTS, luminescence (AID 2001); type: functional; conditions: Homo sapiens
HEK293 [7] = test: cells; type: functional, cell-based; conditions: Homo sapiens
BJ [8] = test: BJ-TERT-LT-ST fibroblast viability loss – cell-based, RAS-independent, luminescence, dose response (AID 1935); type: functional; conditions: Homo sapiens;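 note: BJ fibroblasts immortalized with TERT plus LT and ST oncogenes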
[9] = DRD fibroblast viability loss – cell-based, non-viral oncogenic, luminescence, dose response (AID 1934); type: functional; conditions: Homo sapiens
[10] = microbe, parasite or virus in culture; type: functional; conditions: Mycobacterium tuberculosis
HEK293 [11] = test: cells; type: functional, cell-based; conditions: Homo sapiens; remark: listed apart in the source
BJ [12] = test: BJ-TERT fibroblast viability loss – cell-based, RAS-independent, luminescence, dose response (AID 1933); type: functional; conditions: Homo sapiens
[13] = A cytotoxicity screen of small molecule inhibitors of the PhoP region in Salmonella typhi identified in the primary screen. [Related pubchem assays: 1850, 1864, 1985 ]; type: functional
[14] = molecular target: T3, Corticotropin-releasing factor receptor 2/Corticotropin-releasing factor-binding protein (Homo sapiens, UniProt P24387+Q13324); test: Dose Response confirmation of uHTS hits for small molecule antagonists of the CRF-binding protein and CRF-R2 receptor complex.; type: functional; conditions: read-out: IC50_Mean
T3 sequence (Q13324 whole entry): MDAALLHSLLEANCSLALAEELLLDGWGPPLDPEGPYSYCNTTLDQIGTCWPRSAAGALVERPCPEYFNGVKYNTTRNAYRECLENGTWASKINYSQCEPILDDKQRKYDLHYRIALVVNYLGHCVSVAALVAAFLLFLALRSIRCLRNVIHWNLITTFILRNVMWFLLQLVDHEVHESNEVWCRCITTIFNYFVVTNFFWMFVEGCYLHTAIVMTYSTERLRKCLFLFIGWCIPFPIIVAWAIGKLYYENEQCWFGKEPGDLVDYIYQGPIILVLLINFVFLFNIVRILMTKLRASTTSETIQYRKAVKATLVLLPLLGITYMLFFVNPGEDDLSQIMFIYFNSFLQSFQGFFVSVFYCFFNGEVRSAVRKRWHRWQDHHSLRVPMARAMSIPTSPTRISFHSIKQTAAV
T3 sequence (P24387 whole entry): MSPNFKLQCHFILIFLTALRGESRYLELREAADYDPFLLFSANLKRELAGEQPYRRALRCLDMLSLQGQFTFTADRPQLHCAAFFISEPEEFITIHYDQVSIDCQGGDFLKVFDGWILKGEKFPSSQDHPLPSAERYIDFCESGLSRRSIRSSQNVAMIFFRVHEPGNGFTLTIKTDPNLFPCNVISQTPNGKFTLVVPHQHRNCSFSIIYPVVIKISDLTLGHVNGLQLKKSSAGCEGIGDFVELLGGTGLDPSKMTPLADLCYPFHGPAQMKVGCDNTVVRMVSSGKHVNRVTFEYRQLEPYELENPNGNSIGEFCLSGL

[15] = blockers of CRF-binding protein–CRF-R2 complex – cell-based, uHTS hits, 384-well, dose response (AID 651639); type: functional, Homo sapiens; conditions: read-out: IC50_Mean
[16] = molecular target: T3, Corticotropin-releasing factor receptor 2/Corticotropin-releasing factor-binding protein; test: activators of CRF receptor 2 with binding protein – uHTS hits, confirmation (AID 602473); type: functional; conditions: read-out: EC50_Mean
[17] = reduction of Shn3 3'UTR-driven luciferase in osteoblasts – cell-based, Clone20 osteoblasts, firefly luciferase, cherry-picked, dose response (AID 624132); type: functional;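 note: firefly luciferase luminescence from reporter carrying the Shn3 3'UTR in osteoblasts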
[18] = non-specific 3'UTR reporter inhibition in Clone20-Shn3RL – cell-based, Renilla luciferase, cherry-picked, counter-screen for Shn3 inhibitor project, dose response (AID 624133); type: functional
[19] = P. falciparum Dd2 growth inhibitors, dose response, SYBR Green, cherry-picked samples (AID 1159567); type: functional, cell-based
Cytochrome P450 2C9 = Cytochrome P450 2C9 (Homo sapiens, UniProt P11712)
Sequence of Cytochrome P450 2C9 (P11712 whole entry): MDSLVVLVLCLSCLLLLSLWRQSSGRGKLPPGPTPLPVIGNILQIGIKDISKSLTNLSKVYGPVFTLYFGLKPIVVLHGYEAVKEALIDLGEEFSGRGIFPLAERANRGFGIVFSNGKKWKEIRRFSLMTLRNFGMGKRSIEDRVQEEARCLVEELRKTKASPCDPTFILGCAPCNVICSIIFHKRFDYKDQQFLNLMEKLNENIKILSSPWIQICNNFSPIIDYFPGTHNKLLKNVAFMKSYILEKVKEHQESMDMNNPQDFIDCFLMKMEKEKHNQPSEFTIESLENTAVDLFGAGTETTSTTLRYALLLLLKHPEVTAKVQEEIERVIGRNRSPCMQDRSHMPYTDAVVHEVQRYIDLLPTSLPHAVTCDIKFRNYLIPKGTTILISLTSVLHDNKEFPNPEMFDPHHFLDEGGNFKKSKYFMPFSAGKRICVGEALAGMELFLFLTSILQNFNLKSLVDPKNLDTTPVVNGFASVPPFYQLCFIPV

With `CCOC(=O)C1(Cc2cccc(F)c2)CCN(Cc2cnn(CC)c2C)CC1` the EC50 [1] was 0.211 µM (active).
With `Cc1cccc(C)c1NC(=O)CN(C)C(=O)c1ccc2nc[nH]c2c1` the IC50 [2] was 28 µM (active).
In the case of `CSC1=NC(c2ccc(C)cc2)=NC(C(Cl)(Cl)Cl)N1` (stereo not drawn), the IC50 [3] is reported as > 80 µM (inactive).
For `Cc1ccc(C)c(OCCn2ccnc2)c1`, the IC50 [2] was 5.06 µM (active).
With `CCCc1cc(NC(=O)CCl)n(-c2ccccc2)n1` the EC50 (BJ [4]) was > 150 µM (not active), the EC50 (HEK293 [5]) was 14.3 µM (active) and the IC50 (HEK293 [6]) was 11.1 µM (inactive). The IC50 (HEK293 [7]) was > 20 µM (inactive), the EC50 (BJ [8]) was > 150 µM (not active) and the EC50 [9] was > 150 µM (not active). The CC50 [10] was 17.4 µM (active), the IC50 (HEK293 [11]) was 4.55 µM (active) and the EC50 (BJ [12]) was 29.7 µM (active).
For `Cc1cc(NC(=O)c2ccccc2)sc1C`, the EC50 [13] was > 50 µM (active).
In the case of `O=[N+]([O-])c1ccc2nc(S)sc2c1`, the IC50 [14] is reported as 7.04 µM (active), the IC50 [15] is reported as > 20 µM (inactive) and the EC50 [16] is reported as 27.1 µM (active).
For `CC[C@]12c3[nH]c4cc(CCC(=O)N(C)C)ccc4c3CCN1C(=O)[C@@H](CC(=O)NC/C=C(\C)CCC=C(C)C)C[C@@H]2C(=O)N1CCN(C(=O)c2ccco2)CC1`, the AC50 [17] was 1.68 µM (active) and the AC50 [18] was 1.72 µM (active).
With `COc1ccc(CCN(C)CCC(=O)Nc2c(C)cc(C)cc2C)cc1OC` the EC50 [1] was 4.73 µM (active).
With `Cc1noc(C)c1COC(=O)[C@@H](NC(=O)c1ccccc1)C(C)C` the AC50 [18] was 52.5 µM (active).
In the case of `C[C@H](CO)N1C[C@H](C)[C@H](CN(C)C(=O)Nc2ccc(-c3ccccc3)cc2)OCc2ccccc2-c2c(n(C)c3ccccc23)C1=O`, the AC50 [19] is reported as 4.77 µM (active).
For `CN1c2ccc(C#Cc3cccnc3)cc2[C@@H]2[C@@H](CCN2S(=O)(=O)c2ccccc2F)[C@@H]1CO`, the AC50 [19] was 3.87 µM (active).
For `CCC(=O)N1CCC2(CC1)CN(Cc1cc(F)ccc1F)[C@@H](CO)c1[nH]c3cc(OC)ccc3c12`, the AC50 [19] was 4.19 µM (active).
In the case of `Clc1cnc(Oc2ccc(Oc3ncc(Cl)cc3Cl)cc2)c(Cl)c1`, the AC50 (Cytochrome P450 2C9) is reported as “inconclusive”, the IC50 [14] is reported as < 0.368 µM (active) and the IC50 [15] is reported as 18 µM (active). For the same molecule, the EC50 [16] was > 53 µM (inactive).
